According to patent US20250255847A1, “[…]s: Novel Drugs for Triple Negative Breast Cancer” (SIMMARON RSEARCH INC, priority 2024, published 2025):
pEC50: −log10 of the molar value.

How the values were obtained:
[1] = system: Y705P STAT3 recruitment in IL6 promoter; assay: Chromatin immunoprecipitation of STAT3 response element in IL6 promoter; type: cell-based, human; settings: 10 ng/mL EGF + 20 nM compound, 5 hrs, MDA-MB-468
Experimental: FIG. 9 illustrates an embodiment of the present invention and illustrates promoter recruitment assay of STAT3 in IL6 promoter. (A) MDA-MB-468 cells were treated with 5, 10, and 20 ng/mL doses of EGF for 5 hrs followed by immunoblot (IB) analyses of Y705 phospho and S727 phospho STAT3 in nuclear extracts. Histone 3 ([…]) IB was run as control. (B) EMSA analyses were performed in nuclear extracts of EGF (20 ng/mL)- and EGF+SIM-1 (20 nM)-treated MDA-MB-468 cells against the STAT3-specific oligonucleotide probe (Li-Cor bioscience; Cat #P/N: 829-07922) or SEQ ID NO: 1 and resolved in 6% DNA retardation gel (Invitrogen). […]
Third, to further confirm the promoter recruitment activity of Y705PSTAT3 in the IL6 promoter, chromatin immunoprecipitation assay of STAT3-response element in the IL6 promoter was performed using primer sets described under “Promoter analysis and Chromatin Immunoprecipitation (ChIP) assay” hereinabove. Briefly, MDA-MB-468 cells were incubated with 10 ng/mL EGF, EGF+SIM-1 (20 nM), and EGF+SIM-2 (20 nM) for 5 hrs followed by performing an immunoprecipitation (IP) of DNA-bound STAT3 with Y705P STAT3-specific antibody and then the precipitated DNA by PCR analysis was analyzed to identify STAT3 response element (˜121 bp long) in IL6 promoter.

MDA-MB-468 TNBC cells = assay: LDH release cytotoxicity assay in MDA-MB-468 cells; type: cell-based, human; settings: 48 hrs; for pEC50: Homo sapiens, MDA-MB-468, LDH release, read-out: CT50 (half-response of cytotoxicity)
Experimental: FIG. 11 illustrates an embodiment of the present invention and illustrates SIM-1 and SIM-2 induced apoptosis in MDA-MB-468 TNBC cells, but not HMEC control cells. MDA-MB-468 cells were treated with increasing doses of (A) SIM-1 and (B) SIM-2 for 48 hrs followed by lactate dehydrogenase (LDH) release assay in the supernatants. The result was offset with cell-bound LDH and presented as a percent of DMSO control as discussed under method section. Half-maximal cytotoxicity or CT50 analyses were performed plotting maximum response as an index of increasing doses of (C) SIM-1 and (D) SIM-2. AnnexinV (green) and propidium iodide (red) dual-labeling were performed to evaluate apoptotic response in MDA-MB-468 cells once treated with increasing doses of (E) SIM-1 and (F) SIM-2 for 24 hrs. Nuclei were stained with DAPI. TUNEL assay was performed in MDA-MB-468 cells after treatment with 25 nM of (G) SIM-1. Brown-colored TUNEL bodies were visualized at cresyl violet-stained blue nuclei. (H) The number of TUNEL bodies were counted as a percent of 100 cresyl violet-stained blue cells. Ten independent images were counted for the quantification study. Similarly, SIM-2 was assessed for (I) TUNEL and (J) subsequent quantification analyses. One-way ANOVA was performed to test the significance of mean between groups at **p<0.01 and ****p<0.0001. (K) LDH release assay was performed in non-tumor origin human mammary epithelial cells (HMEC) once treated with increasing doses of SIM-1 and SIM-2 for 48 hrs. Ns=no significance. (L) Annexin V (green) and propidium iodide (red) staining was performed in 25 nM SIM-1- and SIM-2-treated HMEC cells. Nuclei were stained with DAPI. Results are confirmed after three different experiments.
LDH Assay. LDH Assay was performed as per manufacturer's instructions (Cat #: 2570393; Vendor: Thermo Fisher Scientific). MDA-MB-468 and HMEC cells were treated with SIMPYRA-1 and SIMPYRA-2 at doses of 2 nM, 5 nM, […] 25 nM. Each dose was measured in triplicates. After 48 hours of incubation at 37° C., 50 μL of soup from each well was harvested and transferred into a new 96 well plate. Each well was treated with 50 μL of reaction mix (Substrate Mixture+deionized water+Assay Buffer). The reaction was stopped with 50 μL of Stop Solution. The plate was read at 490 nm (background at 680 nm).
This example provides a representative experiment that studies if SIM-1 and SIM-2 promoted the death of TNBC cells. The following experiments were adopted to confirm the apoptosis of TNBC cells. […] During apoptosis, phosphatidyl serine of the plasma membrane flips from the inner to the outer membrane which can be detected by Annexin V labeling, whereas PI stains the nucleus of a cell with compromised integrity of the plasma membrane. […]

## O=C(O)CCC(=O)NCc1csc2ccc(Cl)cc12 [SIM-1, 4-[(5-chloro-1-benzothiophen-3-yl)methylamino]-4-oxobutanoic acid]
[1]
  promoter recruitment activity of Y705P STAT3 in IL6 promoter: significantly attenuated
MDA-MB-468 TNBC cells
  concentration of maximum cell death (LDH release): 20 nM
  pEC50: 7.68

## CCOC(=O)c1c(NC(C)=O)sc2c(Cl)c(/C=N/O)ccc12 [SIM-2, ethyl 2-acetamido-7-chloro-6-(hydroxyiminomethyl)-1-benzothiophene-3-carboxylate]
[1]
  promoter recruitment activity of Y705P STAT3 in IL6 promoter: significantly attenuated
MDA-MB-468 TNBC cells
  concentration of maximum cell death (LDH release): 20 nM
  pEC50: 7.74
